Values of other authors, collected in patent US7399616B2, “Enzymatic synthesis of Nα-acyl-L-arginine esters” (Laboratorios Miret, S.A., priority 2002, dated 2008).

Tests used:
[1] = rats; metabolised into naturally-occurring amino acids and lauric acid, excreted as carbon dioxide and urea
microorganisms = conditions: acts over external and cytoplasmatic membrane and into cytoplasmatic medium; depends on kind of microorganism and exposure time
[2] = animals and humans

SMILES: CCCCCCCCCCCC(=O)N[C@@H](CCCN=C(N)N)C(=O)OCC.Cl [LAE, ethyl ester of the laurylamide of the L-arginine monohydrochloride]
- absorption and metabolism [1]: fast absorption and metabolism
- action on microorganisms (proliferation) (microorganisms): preventing their proliferation
- toxicity [2]: completely harmless
